Where two headings read alike, the source gives them in different places.
How the values were obtained:
[1] = molecular target: T1, human CYP17 in H295R adrenocortical carcinoma cells (Homo sapiens, UniProt P05093); experiment: Cell-based human CYP17 inhibition assay, H295R cells; settings: 16 hours, read-out: CYP17 (human H295R adrenal cells)
T1 construct: H295R Adrenocortical carcinoma cells [NCI-H295A, ATCC Number CRL-2128, American Type Culture Collection; host or cells: H295R adrenocortical carcinoma cells
T1 sequence (P05093 1-508): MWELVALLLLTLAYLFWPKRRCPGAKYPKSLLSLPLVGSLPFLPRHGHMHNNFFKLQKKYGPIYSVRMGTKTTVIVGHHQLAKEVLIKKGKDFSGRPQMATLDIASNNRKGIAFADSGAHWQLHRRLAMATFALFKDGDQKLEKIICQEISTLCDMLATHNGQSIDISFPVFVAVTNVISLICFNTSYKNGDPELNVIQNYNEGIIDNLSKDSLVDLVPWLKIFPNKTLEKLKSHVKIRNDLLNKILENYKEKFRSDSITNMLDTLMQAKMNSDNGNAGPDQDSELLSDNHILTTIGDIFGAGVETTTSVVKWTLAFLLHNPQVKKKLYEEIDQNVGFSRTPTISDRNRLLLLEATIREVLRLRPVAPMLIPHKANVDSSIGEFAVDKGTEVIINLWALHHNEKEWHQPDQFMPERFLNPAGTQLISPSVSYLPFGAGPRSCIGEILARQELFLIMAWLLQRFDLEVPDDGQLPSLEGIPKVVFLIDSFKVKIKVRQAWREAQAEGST
Procedure, shortened: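 H295R cells or LNCaP cells stably transfected with full-length human CYP17A1 (30,000/well) incubated 16 h at 37 °C with ³H-17α-hydroxypregnenolone and compound (top 10 μM, 3-fold dilutions, up to 10 concentrations). Medium chloroform-extracted and charcoal-treated; aqueous-phase radioactivity counted by scintillation.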

[2] = system: testosterone production in H295R cells; experiment: Cell-based functional assay for testosterone production; parameters: species or system human
Method: Cell-Based Functional Assay for Testosterone Production
H295R cells (ATCC Number CRL-2128) were subcultured, seeded (30,000 cells per well in a poly-d lysine plate) and left overnight at 37° C. The next day (after approximately 24 hours), the media were removed and 200 μL fresh media were added. Then, 50 μL of serially diluted compounds was added from a 5× plate. The serial dilution in the 100× plate (in DMSO) and the stamping of a 5× plate (in media) from the 100× plate were carried out using a TECAN liquid handling device. The plate was incubated at 37° C. for 72 hours. After incubation, the media was removed, diluted 5 to 10 times with calibration diluent RD5-48, and the assay performed as per manufacturer's protocol (Parameter Testosterone Assay, Cat. No. KGE010, R&D systems; http://www.mdsystems.com/pdf/KGE010.pdf).

[3] = Homo sapiens, NCI-H295R, 72 h, read-out: Testosterone (human H295R adrenal cells), H295R cells, 72 hours
[4] = read-out: Testosterone (human H295R adrenal cells), H295R cells, 72 hours
[5] = Homo sapiens, NCI-H295R, 72 h, read-out: Testosterone (human H295R adrenal cells)

Structure (SMILES)	IC50 [1] [nM]	IC50 [2, 3] [nM]	IC50 [2, 4] [nM]	IC50 [2, 5] [nM]
Cn1cc(-c2ccc(C(C)(O)c3ccncc3)s2)ccc1=O (stereo not shown) [Example 15, 5-(5-(1-Hydroxy-1-(pyridin-4-yl)ethyl)thiophen-2-yl)-1-methyl-pyridin-2(1H)-one]	50 to 200	–	–	–
CCC(O)(c1ccncc1)c1cnc(-c2ccc(F)cc2)s1 (stereo not shown) [Example 4, 1-(2-(4-fluorophenyl)-thiazol-5-yl)-1-(pyridin-4-yl)propan-1-ol]	50 to 200	< 50	–	–
CC(O)(c1ccncc1)c1nc(-c2ccc(F)cc2)no1 (stereo not shown) [Example 34, 1-(3-(4-Fluorophenyl)-1,2,4-oxadiazol-5-yl)-1-(pyridin-4-yl)ethanol]	< 50	–	–	–
COc1ccc(-c2ccc(C(C)(O)c3ccncc3)nc2)cc1 (single isomer, unassigned) [Example 2, 1-(5-(4-methoxyphenyl)-pyridin-2-yl)-1-(pyridin-4-yl)ethanol]	50 to 200	–	50 to 200	–
Cn1cc(-c2ccc(C(C)(O)c3ccncc3)s2)ccc1=O (single isomer, unassigned; (-)) [Example 17, (−)-5-(5-(1-hydroxy-1-(pyridin-4-yl)ethyl)thiophen-2-yl)-1-methylpyridin-2(1H)-one]	< 50	–	–	–
CC(O)(c1ccncc1)c1ncc(-c2ccc(F)cc2)s1 (stereo not shown) [Example 14, 1-(5-(4-Fluorophenyl)thiazol-2-yl)-1-(pyridin-4-yl)ethanol]	< 50	–	–	–
COc1ccc(-c2ccc(C(C)(O)c3ccncc3)nc2)cc1 (single isomer, unassigned) [Example 3, 1-(5-(4-methoxyphenyl)-pyridin-2-yl)-1-(pyridin-4-yl)ethanol]	201 to 10000	50 to 200	–	–
CC(O)(c1ccncc1)c1cnc(-c2ccc(F)cc2)s1 (single isomer, unassigned) [Example 9, 1-(2-(4-fluorophenyl)thiazol-5-yl)-1-(pyridin-4-yl)ethanol]	< 50	–	< 50	–
CC(O)(c1ccncc1)c1cnc(-c2ccc(F)cc2)s1 (racemic) [Example 7, 1-(2-(4-Fluorophenyl)thiazol-5-yl)-1-(pyridin-4-yl)ethanol]	50 to 200	–	–	< 50
CC(O)(c1ccncc1)c1cnc(-c2ccc(F)cc2)s1 (single isomer, unassigned) [Example 8, 1-(2-(4-fluorophenyl)thiazol-5-yl)-1-(pyridin-4-yl)ethanol]	201 to 10000	50 to 200	–	–
CC(O)(c1ccncc1)c1nc(-c2ccc(F)cc2)no1 (single isomer, unassigned; (+)) [Example 36, (+)-1-(3-(4-fluoro-phenyl)-1,2,4-oxadiazol-5-yl)-1-(pyridin-4-yl)ethanol]	< 50	–	–	–
COc1ccc(-c2ccc(C(C)(O)c3ccncc3)nc2)cc1 (racemic) [Example 1, 1-(5-(4-Methoxyphenyl)pyridin-2-yl)-1-(pyridin-4-yl)ethanol]	50 to 200	–	–	50 to 200
